The values below come from patent publication US20240041050A1, “CELL PENETRATING PEPTIDE MEDIATED RNA TRANSDUCTION WITHIN INSECT CELLS” (PIONEER HI-BRED INTERNATIONAL, INC., priority 2020, published 2024).

Peptide text beside a SMILES is read from it.

This assay deals with dvssj1 frag 1 dsRNA. The experiment in a line: CPP·dsRNA complex formation by gel shift assay. It counts as binding. The note with it: 770 nM unlabeled dsRNA (2100 ng); molar ratio 1:4 through 8:1; 1.2% TE agarose gel. The protocol:
FIG. 2 Formation of CPP·dsRNA complex as assessed by gel shift assay. FIG. 2A Reactions were assembled as described in Example 3, with increasing amounts of MPG-YFP added to […] Cy3-dsRNA (595.8 ng), from a molar ratio (CPP:dsRNA) of 1:4 through 8:1. After incubation, 20 μL reaction volumes were each mixed with 2 μL 10% molecular biology grade glycerol and electrophoresed on a 1.2% Tris-EDTA (TE) agarose gel and stained with Invitrogen™ SYBR Safe DNA Gel Stain (Thermo Fisher Scientific, Waltham, MA). Effects on mobility of the Cy3-dsRNA band are observed upon increasing molar ratios of MPG-YFP. […] The large relative size of MPG-YFP causes a large band shift. FIG. 2B Reactions were assembled as described in Example 3, with increasing amounts of CyLoP added to 770 nM dsRNA (2100 ng), from a molar ratio of 1:4 through 8:1. […] FIG. 2C Results of MPG-YFP binding to Cy3-dsRNA (described in 2A) assessed by DLS. […] Readings were collected using default settings for protein molecules, at 25° C. with a 15 second equilibration stage, using a Zetasizer Ultra and accompanying software (Malvern Panalytical, Malvern, United Kingdom). The dispersant was adjusted to account for the specific viscosity and refractive index of the complex formation solution prior to calculation of detected sizes. […]
In general terms: In EMSA bound probe runs differently from free probe, usually more slowly.

Take `N=C(N)NCCC[C@H](NC(=O)[C@H](Cc1c[nH]c2ccccc12)NC(=O)[C@H](CCCNC(=N)N)NC(=O)[C@@H](N)CS)C(=O)N[C@@H](Cc1c[nH]c2ccccc12)C(=O)N[C@@H](CCCCN)C(=O)N[C@@H](CS)C(=O)N[C@@H](CS)C(=O)N[C@@H](CCCCN)C(=O)N[C@@H](CCCCN)C(=O)O` [CyLoP-1, CRWRWKCCKK] (H-CRWRWKCCKK-OH; N-terminus and C-terminus assumed): the “gel shift: apparent size of the RNA band with increasing CPP” value was “binding of CyLoP molecules to the RNA”.
